Reference: patent publication US20170003277A1 (priority 2015, published 2017)

Experiments:
mouse splenocytes = assay: Immunological cell type enrichment for genes modulated by GA in mouse splenocytes; assay type: cell-based; set-up: Score: scale not given here
Source text: (§1) Genome-wide expression profiles in cells from three different datasets in two different species (human, mouse) were studied. LIMMA was utilized to identify a genome-wide list of differentially expressed genes induced by GA in the primed and ex vivo stimulated mouse splenocytes, as well as in the THP-1 human monocyte cell line. Repeated-measures ANOVA was utilized to find a genome-wide list of genes modulated by GA in treated MS patients. Advanced enrichment algorithms were then applied to elucidate the pathways and cell types modulated by GA.
(§2) In addition to the shared induced effects discussed above, each system and platform clearly captured different aspects of GA's impact on the immune system. […] In human PBMCs, genes associated with immune cell types were modulated early in treatment (by month 3), including certain cell types affected in prior systems, but also distinct cell types, such as megakaryocytes and myeloid progenitors (Table 11).

human PBMC = assay: Immunological cell type enrichment for genes modulated by GA in human PBMC; assay type: in vivo; set-up: Score: scale not given here
Source text: as §1, §2

[1] = test system: mouse splenocytes, THP-1 human monocyte cell line, PBMCs from MS patients; assay: Integrated analysis of genes modulated by Copaxone across mouse splenocytes, THP-1 human monocytes and MS patient PBMCs; details: human monocytes
Source text: as §1
The genes modulated by GA treatment in multiple studies were examined for enrichment in particular immunological cell types.

[2] = B.GC.Sp.rnk, Upregulated (top 20 results)
[3] = DC.103.11b..LuLN.rnk, Downregulated (top 20 results)
[4] = DC.103.11b..PolyIC.Lu.rnk, Upregulated (top 20 results)
[5] = DC.103.11b.24..Lu.rnk, Upregulated (top 20 results)
[6] = DC.8.4.11b..SLN.rnk, Downregulated (top 20 results)
[7] = DC.Ilhilang.103.11b..SLN.rnk, Downregulated (top 20 results)
[8] = DC.Ilhilang.103.11blo.SLN.rnk, Downregulated (top 20 results)
[9] = DC.LC.Sk.rnk, Upregulated (top 20 results)
[10] = GN.Arth.BM.rnk, Downregulated (top 20 results)
[11] = GN.Arth.SynF.rnk, Downregulated (top 20 results)
[12] = GN.BI.rnk, Downregulated (top 20 results)
[13] = GN.BM.rnk, Downregulated (top 20 results)
[14] = GN.Thio.PC.rnk, Downregulated (top 20 results)
[15] = GN.UrAc.PC.rnk, Downregulated (top 20 results)
[16] = Mo.6C.Il..BM.rnk, Downregulated (top 20 results)
[17] = Mo.6C.Ilint.BI.rnk, Downregulated (top 20 results)
[18] = NK.H..MCMV1.Sp.rnk, Upregulated (top 20 results)
[19] = NK.MCMV1.Sp.rnk, Upregulated (top 20 results)
[20] = SC.CDP.BM.rnk, Downregulated (top 20 results)
[21] = SC.GMP.BM.rnk, Downregulated (top 20 results)
[22] = SC.MDP.BM.rnk, Downregulated (top 20 results)
[23] = SC.MEP.BM.rnk, Upregulated (top 20 results)
[24] = T.4FP3.25..AA.rnk, Upregulated (top 20 results)
[25] = T.4SP24int.Th.rnk, Downregulated (top 20 results)
[26] = T.8Eff.Sp.OT1.12hr.LisOva.rnk, Upregulated (top 20 results)
[27] = T.8Eff.Sp.OT1.24hr.LisOva.rnk, Upregulated (top 20 results)
[28] = T.8Eff.Sp.OT1.48hr.LisOva.rnk, Upregulated (top 20 results)
[29] = T.8Nve.Sp.OT1.rnk, Downregulated (top 20 results)
[30] = T.DPbl.Th.rnk, Upregulated (top 20 results)
[31] = T.ISP.Th.rnk, Upregulated (top 20 results)
[32] = Tgd.vg2.24ahi.e17.Th.rnk, Upregulated (top 20 results)
[33] = Tgd.vg3.24alo.e17.Th.rnk, Upregulated (top 20 results)
[34] = preB.FrC.BM.rnk, Upregulated (top 20 results)
[35] = preT.DN3B.Th.rnk, Upregulated (top 20 results)
[36] = preT.DN3.4.Th.rnk, Upregulated (top 20 results)
[37] = proB.CLP.BM.rnk, Downregulated (top 20 results)
[38] = proB.CLP.FL.rnk, Downregulated (top 20 results)
[39] = proB.FrA.FL.rnk, Upregulated (top 20 results)
[40] = proB.FrBC.FL.rnk, Upregulated (top 20 results)
[41] = BASO1.rnk, Upregulated, Cluster 2
[42] = BCELLA1.rnk, Downregulated, Cluster 0
[43] = BCELLA2.rnk, Downregulated, Cluster 0
[44] = BCELLA3.rnk, Downregulated, Cluster 0
[45] = BCELLA4.rnk, Downregulated, Cluster 0
[46] = CMP.rnk, Upregulated, Cluster 4
[47] = EOS2.rnk, Upregulated, Cluster 2
[48] = ERY1.rnk, Upregulated, Cluster 2
[49] = ERY1.rnk, Upregulated, Cluster 4
[50] = ERY2.rnk, Upregulated, Cluster 2
[51] = ERY2.rnk, Upregulated, Cluster 4
[52] = ERY3.rnk, Upregulated, Cluster 2
[53] = ERY3.rnk, Upregulated, Cluster 4
[54] = ERY4.rnk, Upregulated, Cluster 2
[55] = ERY4.rnk, Upregulated, Cluster 4
[56] = ERY5.rnk, Upregulated, Cluster 2
[57] = ERY5.rnk, Upregulated, Cluster 4
[58] = GMP.rnk, Upregulated, Cluster 4
[59] = GRAN1.rnk, Upregulated, Cluster 2
[60] = GRAN2.rnk, Upregulated, Cluster 4
[61] = HSC3.rnk, Upregulated, Cluster 4
[62] = MEGA1.rnk, Upregulated, Cluster 4
[63] = MEGA2.rnk, Upregulated, Cluster 0
[64] = MEGA2.rnk, Upregulated, Cluster 4
[65] = MEP.rnk, Upregulated, Cluster 2
[66] = PRE_BCELL3.rnk, Upregulated, Cluster 2

Substance glatiramer acetate [Copaxone®] has a Score (mouse splenocytes; [2]) of 602.5, a p.val (mouse splenocytes; [2]) of 1.01E−12 and a Score (mouse splenocytes; [3]) of 1152. It also gave a p.val (mouse splenocytes; [3]) of 2.47E−06, a Score (mouse splenocytes; [4]) of 705 and a p.val (mouse splenocytes; [4]) of 1.44E−14. The Score (mouse splenocytes; [5]) was 738.3, the p.val (mouse splenocytes; [5]) was 8.91E−12 and the Score (mouse splenocytes; [6]) was 1117. For the same substance, the p.val (mouse splenocytes; [6]) was 1.86E−07, the Score (mouse splenocytes; [7]) was 1151 and the p.val (mouse splenocytes; [7]) was 9.94E−08. It also gave a Score (mouse splenocytes; [8]) of 1112, a p.val (mouse splenocytes; [8]) of 5.07E−08 and a Score (mouse splenocytes; [9]) of 709.9. The p.val (mouse splenocytes; [9]) was 2.89E−15, the Score (mouse splenocytes; [10]) was 1218 and the p.val (mouse splenocytes; [10]) was 0. For the same substance, the Score (mouse splenocytes; [11]) was 1160, the p.val (mouse splenocytes; [11]) was 2.72E−11 and the Score (mouse splenocytes; [12]) was 1185. The p.val (mouse splenocytes; [12]) was 6.66E−15, the Score (mouse splenocytes; [13]) was 1212 and the p.val (mouse splenocytes; [13]) was 1.11E−16. For the same substance, the Score (mouse splenocytes; [14]) was 1197, the p.val (mouse splenocytes; [14]) was 6.39E−14 and the Score (mouse splenocytes; [15]) was 1145. The p.val (mouse splenocytes; [15]) was 5.87E−14, the Score (mouse splenocytes; [16]) was 1095 and the p.val (mouse splenocytes; [16]) was 1.71E−06. The Score (mouse splenocytes; [17]) was 1107, the p.val (mouse splenocytes; [17]) was 1.62E−05 and the Score (mouse splenocytes; [18]) was 770.8. It also gave a p.val (mouse splenocytes; [18]) of 7.11E−15, a Score (mouse splenocytes; [19]) of 793.3 and a p.val (mouse splenocytes; [19]) of 1.51E−14. It also gave a Score (mouse splenocytes; [20]) of 1078, a p.val (mouse splenocytes; [20]) of 0 and a Score (mouse splenocytes; [21]) of 1341. The p.val (mouse splenocytes; [21]) was 1.56E−05, the Score (mouse splenocytes; [22]) was 1206 and the p.val (mouse splenocytes; [22]) was 1.56E−05. The Score (mouse splenocytes; [23]) was 641.2, the p.val (mouse splenocytes; [23]) was 0 and the Score (mouse splenocytes; [24]) was 697.6. It also gave a p.val (mouse splenocytes; [24]) of 2.76E−11, a Score (mouse splenocytes; [25]) of 1040 and a p.val (mouse splenocytes; [25]) of 0. It also gave a Score (mouse splenocytes; [26]) of 683, a p.val (mouse splenocytes; [26]) of 0 and a Score (mouse splenocytes; [27]) of 661.8. The p.val (mouse splenocytes; [27]) was 5.97E−14, the Score (mouse splenocytes; [28]) was 587.7 and the p.val (mouse splenocytes; [28]) was 0. It also gave a Score (mouse splenocytes; [29]) of 1095, a p.val (mouse splenocytes; [29]) of 0 and a Score (mouse splenocytes; [30]) of 659.3. It also gave a p.val (mouse splenocytes; [30]) of 0, a Score (mouse splenocytes; [31]) of 584.9 and a p.val (mouse splenocytes; [31]) of 0. The Score (mouse splenocytes; [32]) was 620, the p.val (mouse splenocytes; [32]) was 9.88E−13 and the Score (mouse splenocytes; [33]) was 620.8. The p.val (mouse splenocytes; [33]) was 2.72E−11, the Score (mouse splenocytes; [34]) was 620.2 and the p.val (mouse splenocytes; [34]) was 0. For the same substance, the Score (mouse splenocytes; [35]) was 568, the p.val (mouse splenocytes; [35]) was 1.64E−10 and the Score (mouse splenocytes; [36]) was 560.7. The p.val (mouse splenocytes; [36]) was 2.96E−10, the Score (mouse splenocytes; [37]) was 1181 and the p.val (mouse splenocytes; [37]) was 1.35E−06. For the same substance, the Score (mouse splenocytes; [38]) was 1115, the p.val (mouse splenocytes; [38]) was 0 and the Score (mouse splenocytes; [39]) was 578.6. It also gave a p.val (mouse splenocytes; [39]) of 7.17E−11, a Score (mouse splenocytes; [40]) of 595.3 and a p.val (mouse splenocytes; [40]) of 0. It also gave a Score (human PBMC; [41]) of 87.3, a p.val (human PBMC; [41]) of 0.00322 and a Score (human PBMC; [42]) of −19.11. It also gave a p.val (human PBMC; [42]) of 0.002737, a Score (human PBMC; [43]) of −25.77 and a p.val (human PBMC; [43]) of 0.0004201. For the same substance, the Score (human PBMC; [44]) was −20.11, the p.val (human PBMC; [44]) was 0.001385 and the Score (human PBMC; [45]) was −21.51. The p.val (human PBMC; [45]) was 0.002538, the Score (human PBMC; [46]) was 23.19 and the p.val (human PBMC; [46]) was 0.002214. It also gave a Score (human PBMC; [47]) of 62.69, a p.val (human PBMC; [47]) of 0.002286 and a Score (human PBMC; [48]) of 28.25. For the same substance, the p.val (human PBMC; [48]) was 0.003043, the Score (human PBMC; [49]) was 45 and the p.val (human PBMC; [49]) was 0.002587. For the same substance, the Score (human PBMC; [50]) was 32.83, the p.val (human PBMC; [50]) was 8.43E−05 and the Score (human PBMC; [51]) was 47.25. It also gave a p.val (human PBMC; [51]) of 4.70E−06, a Score (human PBMC; [52]) of 84.62 and a p.val (human PBMC; [52]) of 0.0002869. It also gave a Score (human PBMC; [53]) of 90.02, a p.val (human PBMC; [53]) of 0.009061 and a Score (human PBMC; [54]) of 69.44. The p.val (human PBMC; [54]) was 0.0001417, the Score (human PBMC; [55]) was 77.38 and the p.val (human PBMC; [55]) was 0.001966. It also gave a Score (human PBMC; [56]) of 64.23, a p.val (human PBMC; [56]) of 9.88E−07 and a Score (human PBMC; [57]) of 73.42. For the same substance, the p.val (human PBMC; [57]) was 0.0009808, the Score (human PBMC; [58]) was 33.13 and the p.val (human PBMC; [58]) was 0.0001427. For the same substance, the Score (human PBMC; [59]) was 55.17, the p.val (human PBMC; [59]) was 0.0005577 and the Score (human PBMC; [60]) was 35.18. The p.val (human PBMC; [60]) was 0.00875, the Score (human PBMC; [61]) was 45.41 and the p.val (human PBMC; [61]) was 0.0002875. It also gave a Score (human PBMC; [62]) of 38.05, a p.val (human PBMC; [62]) of 4.66E−09 and a Score (human PBMC; [63]) of 32.43. It also gave a p.val (human PBMC; [63]) of 1.24E−12, a Score (human PBMC; [64]) of 64.46 and a p.val (human PBMC; [64]) of 4.41E−12. For the same substance, the Score (human PBMC; [65]) was 30.54, the p.val (human PBMC; [65]) was 0.009388 and the Score (human PBMC; [66]) was 57.94. For the same substance, the p.val (human PBMC; [66]) was 3.98E−08, the “IL-10 gene expression in all 3 systems” value [1] was “Upregulated expression” and the “Number of genes modulated significantly by GA in all three studies” value [1] was 39.
